Data on 15 substances can be found in article PMC10288869, “Release of an encrypted, highly potent ACE-inhibitory peptide by enzymatic hydrolysis of moth bean (Vigna aconitifolia) protein” (Frontiers in Nutrition, 2023).

Data set [1] concerns the target T1, Angiotensin-converting enzyme (ACE) (Sus scrofa, UniProt F1RRW5).
T1 construct: Angiotensin-converting enzyme (ACE) was extracted and purified from pig lung tissues; from tissue; host or cells: pig lung
T1 sequence (F1RRW5 34-1309): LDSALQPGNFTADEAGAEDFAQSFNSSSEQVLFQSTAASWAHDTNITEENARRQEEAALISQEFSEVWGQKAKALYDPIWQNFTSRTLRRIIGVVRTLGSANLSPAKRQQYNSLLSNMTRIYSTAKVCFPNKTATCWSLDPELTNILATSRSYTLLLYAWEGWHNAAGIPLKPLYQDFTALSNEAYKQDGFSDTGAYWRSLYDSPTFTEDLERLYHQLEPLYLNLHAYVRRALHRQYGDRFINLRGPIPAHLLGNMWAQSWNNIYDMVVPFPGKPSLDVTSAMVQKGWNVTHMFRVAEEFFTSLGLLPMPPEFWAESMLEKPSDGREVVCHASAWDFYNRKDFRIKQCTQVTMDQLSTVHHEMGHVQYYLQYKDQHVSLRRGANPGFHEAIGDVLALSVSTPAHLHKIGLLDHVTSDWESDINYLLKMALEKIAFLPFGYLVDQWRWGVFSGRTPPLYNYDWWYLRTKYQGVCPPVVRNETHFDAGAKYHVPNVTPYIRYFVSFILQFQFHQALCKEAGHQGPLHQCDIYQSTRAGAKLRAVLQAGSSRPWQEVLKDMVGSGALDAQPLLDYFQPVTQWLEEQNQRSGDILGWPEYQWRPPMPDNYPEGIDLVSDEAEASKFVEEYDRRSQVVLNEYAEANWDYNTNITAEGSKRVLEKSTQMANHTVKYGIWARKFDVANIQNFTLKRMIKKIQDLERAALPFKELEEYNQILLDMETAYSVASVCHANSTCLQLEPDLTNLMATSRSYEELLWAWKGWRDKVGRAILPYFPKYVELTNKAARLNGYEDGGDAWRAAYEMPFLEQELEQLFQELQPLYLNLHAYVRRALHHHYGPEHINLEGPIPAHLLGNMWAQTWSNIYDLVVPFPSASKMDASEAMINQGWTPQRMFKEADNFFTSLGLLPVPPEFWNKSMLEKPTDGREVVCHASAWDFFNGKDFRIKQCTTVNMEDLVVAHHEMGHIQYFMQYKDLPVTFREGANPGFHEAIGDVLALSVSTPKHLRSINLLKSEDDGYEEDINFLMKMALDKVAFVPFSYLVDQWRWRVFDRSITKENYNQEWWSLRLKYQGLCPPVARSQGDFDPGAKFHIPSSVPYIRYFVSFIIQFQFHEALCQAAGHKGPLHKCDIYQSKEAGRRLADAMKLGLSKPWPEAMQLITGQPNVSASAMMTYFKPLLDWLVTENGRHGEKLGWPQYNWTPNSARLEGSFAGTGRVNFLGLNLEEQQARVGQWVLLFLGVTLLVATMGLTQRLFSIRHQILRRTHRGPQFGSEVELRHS
Briefly: Gastrointestinal digestion simulation (SGF, SIF) followed by ACE inhibition assay. It counts as in vitro ADME, pig. The arrangement: increase in ACE inhibitory activity after intestinal digestion simulation / increase in ACE inhibitory activity due to cleavage by pepsin / ACE inhibitory activity decreased to (% of initial) following intestinal digestion simulation: concentration or dose not given beside the values. Conditions: for ACE inhibition (%) after SGF: after gastric phase: simulated gastric fluid, pepsin 2,000U/ml, pH 2.5, 2 h; for ACE inhibition (%) after SGF / ACE inhibition (%) After SIF: 37°C, read-out ACE inhibition, mean ± SD, n = 3; for ACE inhibition (%) After SIF: after intestinal phase: simulated intestinal fluid, pancreatin 100U/ml, bile juice, pH 8, 2 h, following gastric phase; for increase in ACE inhibitory activity due to cleavage by pepsin: after gastric phase. The protocol: Angiotensin-converting enzyme (ACE) inhibition activity was performed according to Jimsheena et al. ([23]), with minor modifications. In brief, 10 μl (0.1 mg of peptides/ml) of the sample was first incubated with 10 μl of ACE at 37°C for 5 min. Later, 30 μl of 50 mM phosphate buffer (pH 8.3) containing 150 mM NaCl and 50 μl of 5 mM HHL was added and mixed completely. The reaction mixture was kept for incubation in a water bath at 37°C for 30 min. The reaction was terminated by adding 100 μl of 1 M HCl. Subsequently, 200 μl of pyridine and 100 μl of benzene sulfonyl chloride (BSC) were added sequentially to the solution and vortexed for 10 s. The reaction mixture was, then, cooled on ice, and the absorbance was measured at 410 nm using a spectrophotometer. Captopril was used as a reference for comparison. ACE inhibition activity (%) was calculated as follows: […]
The peptides synthesized were subjected to GI digestion simulation, as per the procedure described by Minekus et al. ([24]), with minor modifications. Bile juice was prepared according to Versantvoort et al. ([25]). Three steps of digestion (the mouth, stomach, and small intestine) were simulated, and the fluid was prepared to mimic physiological conditions. The composition of the simulated fluid is presented in Supplementary Table S2. The pH of the solution was adjusted by using 5 N NaOH and 6 N HCl. The digestion process was carried out using a stirring water bath at 37°C. Sampling was carried out after each step of digestion, and % ACE inhibition and degree of hydrolysis were calculated. Enzymes were inactivated by heating the fraction at 90°C for 10 min., followed by centrifugation at 10,000 g at 4°C for 15 min. The supernatant obtained was stored at −20°C for later study.

Data set [2] addresses T1, Angiotensin-converting enzyme (ACE). Briefly: ACE inhibition activity determination (HHL substrate, colorimetric). The format is biochemical, pig. Conditions: for ACE inhibition % (before GI digestion): sample 0.1 mg of peptides/ml, 5 mM HHL, pH 8.3, 37°C, 30 min, absorbance 410 nm, mean ± SD, n = 3. From the text: Moth bean seeds (MBS-27 variety) were obtained from Mahatma Phule Krishi Vidyapeeth (MPKV), Rahuri, Maharashtra. Angiotensin-converting enzyme (ACE) was extracted and purified from pig lung tissues according to the protocol described by Abdulazeez Mansurah et al. ([19]). Pig lung tissues were brought from a local slaughterhouse (Deonar Abattoir, Mumbai). Pepsin (1,000 U/mg, from porcine), pancreatin 3x (3 NF/USP, from porcine pancreas), trypsin (>2,000 U/g, from bovine pancreas), and papain (from papaya latex) were purchased from HiMedia Laboratories Pvt. Ltd., Mumbai. HHL (N-Hippuryl- His- Leu hydrate) and captopril were purchased from Sigma–Aldrich Chemicals Private Limited, Bangalore, India. All the chemicals used were of analytical grade.
Angiotensin-converting enzyme (ACE) inhibition activity was performed according to Jimsheena et al. ([23]), with minor modifications. In brief, 10 μl (0.1 mg of peptides/ml) of the sample was first incubated with 10 μl of ACE at 37°C for 5 min. Later, 30 μl of 50 mM phosphate buffer (pH 8.3) containing 150 mM NaCl and 50 μl of 5 mM HHL was added and mixed completely. The reaction mixture was kept for incubation in a water bath at 37°C for 30 min. The reaction was terminated by adding 100 μl of 1 M HCl. Subsequently, 200 μl of pyridine and 100 μl of benzene sulfonyl chloride (BSC) were added sequentially to the solution and vortexed for 10 s. The reaction mixture was, then, cooled on ice, and the absorbance was measured at 410 nm using a spectrophotometer. Captopril was used as a reference for comparison. ACE inhibition activity (%) was calculated as follows:
ACE inhibition % = (1− As/Ac) x 100
where As is the absorbance of the mixture containing the sample, and Ac is the absorbance of the mixture without inhibitor at 410 nm. IC50 values were determined for each fraction using a plot of ACE activity vs. inhibitor concentration.

The target is the same in data set [3]. Briefly: ACE inhibition kinetics (Lineweaver-Burk plot, Dixon plot). Conditions: HHL 1 to 7.5 mM, peptide 5 and 10 μM. The format is biochemical, pig. The protocol: The mechanism of ACE inhibition by a peptide showing the lowest IC50 value was identified by the rate of HHL hydrolysis measured over a range of concentrations (1 to 7.5 mM) by varying concentrations of inhibitory peptide (5 and 10 μM). The analysis was carried out by using a double reciprocal Lineweaver–Burk plot, to determine the mode of ACE inhibition, Michaelis–Menten constant (Km), and the maximum velocity (Vmax). The inhibitor constant (Ki) was determined by the Dixon plot.

Where [4] appears, read: relative to activity before GI digestion.

Marks after values point to notes of the source that are not given here. No end group written: not given here.

Consider AENNQR [pp-25], for which, in data set [1], the “ACE inhibition (%) after SGF” value is 9.8 ± 2.8^i % and the “ACE inhibition (%) After SIF” value was 14.5 ± 0.5^h %. In addition, in data set [2] (synthesized peptide), the “ACE inhibition % (before GI digestion)” value is listed as 11.8 ± 2.9^i %.
Turning to ATDETGSK [pp-33], in data set [1], the “ACE inhibition (%) after SGF” value is on record as 15.1 ± 0.6^h % and the “ACE inhibition (%) After SIF” value is 15.6 ± 1.9^h %. The “ACE inhibition % (before GI digestion)” value in data set [2] (synthesized peptide) was 13.1 ± 4.7^h %.
In the case of FPPPKVIQ [pp-28], the IC50 in data set [1] (after GI digestion simulation (digestion by trypsin in intestinal phase)) is 20000 nM; in data set [2] (purification steps of ACE-inhibitory peptide, read-out: IC50 (μg/ml) (converted)) it was 216 nM; in data set [2] (synthesized peptide, before GI digestion, read-out: IC50 of ACE inhibition) it was 240 nM. The “ACE inhibition (%) after SGF” value in data set [1] is 90.5 ± 4.6^a %. Further, the “ACE inhibition (%) After SIF” value in data set [1] is listed as 59.6 ± 0.3^b %; in data set [1] (listed as FPPPKVIQ), ~ 59%. For the same substance, the “ACE inhibition % (before GI digestion)” value in data set [2] (synthesized peptide) is reported as 93.4 ± 1.7^a %. Besides, the Ki (in general, a measure of affinity in units of concentration, obtained from inhibition or displacement) in data set [3] was found to be 810 nM.
For the substance GDTGRQQ [pp-1], in data set [1], the “ACE inhibition (%) after SGF” value is reported as 24.0 ± 5.7^g % and the “ACE inhibition (%) After SIF” value is reported as 7.6 ± 1.2^j %. The “ACE inhibitory activity decreased to (% of initial) following intestinal digestion simulation” value in data set [1] (setting [4]) is 35%. Besides, the “ACE inhibition % (before GI digestion)” value in data set [2] (synthesized peptide) is 21.8 ±2.3^g %.
For the substance HDTGRQH [pp-8], in data set [1], the “ACE inhibition (%) after SGF” value is on record as 11.8 ± 1.3^i % and the “ACE inhibition (%) After SIF” value is 21.3 ± 0.3^g %. Further, the “ACE inhibition % (before GI digestion)” value in data set [2] (synthesized peptide) is reported as 12.1 ±5.5^i %.
As to HPGDDKS [pp-30], in data set [1], the “ACE inhibition (%) after SGF” value is 31.1 ± 0.7^e % and the “ACE inhibition (%) After SIF” value is 6.2 ± 4.3^j %. Further, the “ACE inhibitory activity decreased to (% of initial) following intestinal digestion simulation” value in data set [1] (setting [4]) is listed as 18%. Besides, the “ACE inhibition % (before GI digestion)” value in data set [2] (synthesized peptide) was 34.3 ± 7.7^e %.
With HVDSGK [pp-18], in data set [1], the “ACE inhibition (%) after SGF” value was 9.6 ± 0.5^i % and the “ACE inhibition (%) After SIF” value is 15.3 ± 3.6^h %. Moreover, the “increase in ACE inhibitory activity after intestinal digestion simulation” value in data set [1] (setting [4]) is 86%. The “ACE inhibition % (before GI digestion)” value in data set [2] (synthesized peptide) is reported as 8.2 ± 4.3^i %.
As for IEPLPPR [pp-16], in data set [1], the “ACE inhibition (%) after SGF” value is given as 30.0 ± 0.4^f % and the “ACE inhibition (%) After SIF” value is 33.6 ± 3.2^f %. The “ACE inhibition % (before GI digestion)” value in data set [2] (synthesized peptide) is given as 36.0 ± 1.9^e %.
Taken in the same sequence, the figures for ISGGSSR [pp-39] were 21.1 ± 0.8^g %, 19.0 ± 1.8^g % and 23.6 ± 6.9^g %.
Consider LTAEHPVV [pp-44], for which the “increase in ACE inhibitory activity due to cleavage by pepsin” value in data set [1] (setting [4]) is 236%. In addition, in data set [1], the “ACE inhibition (%) after SGF” value is reported as 21.5 ± 3.4^g % and the “ACE inhibition (%) After SIF” value is 18.8 ± 9.9^g %. Also, the “ACE inhibition % (before GI digestion)” value in data set [2] (synthesized peptide) is 6.4 ± 1.0^j %.
Regarding NNPHR [pp-24], in data set [1], the “ACE inhibition (%) after SGF” value is 41.4 ± 2.2^d % and the “ACE inhibition (%) After SIF” value is 15.0 ± 0.6^h %. In addition, the “reduction in ACE inhibitory activity after intestinal digestion simulation” value in data set [1] (setting [4]) was 68%. For the same substance, in data set [2] (synthesized peptide), the “ACE inhibition % (before GI digestion)” value is recorded as 47.1 ±6.7^d %.
Consider TFAPGF [pp-45], for which the “increase in ACE inhibitory activity due to cleavage by pepsin” value in data set [1] (setting [4]) is given as 77%. Besides, in data set [1], the “ACE inhibition (%) after SGF” value is 74.3 ± 2.2^b % and the “ACE inhibition (%) After SIF” value is listed as 17.9 ± 1.8^g %. Also, the “ACE inhibition % (before GI digestion)” value in data set [2] (synthesized peptide) was 41.9 ± 6.9^d %.
In the case of TGDTGR [pp-6], in data set [1], the “ACE inhibition (%) after SGF” value is 3.9 ± 1.3^k % and the “ACE inhibition (%) After SIF” value is 4.2 ± 1.3^k %. The “ACE inhibition % (before GI digestion)” value in data set [2] (synthesized peptide) is given as 3.9 ± 5.5^k %.
Turning to TGDTGRQH [pp-4], in data set [1], the “ACE inhibition (%) after SGF” value is listed as 18.0 ± 2.9^g % and the “ACE inhibition (%) After SIF” value was 33.6 ± 1.2^f %. In addition, the “increase in ACE inhibitory activity after intestinal digestion simulation” value in data set [1] (setting [4]) is given as 103%. Also, in data set [2] (synthesized peptide), the “ACE inhibition % (before GI digestion)” value is given as 16.5 ± 2.1^g %.
On to VEPLPPR [pp-15], for which, in data set [1], the “ACE inhibition (%) after SGF” value is 51.0 ± 3.4^c % and the “ACE inhibition (%) After SIF” value is 52.3 ± 3.8^c %. Also, the “ACE inhibition % (before GI digestion)” value in data set [2] (synthesized peptide) was 55.9 ± 1.3^c %.
